# US11000033B2, “Ketone or oxime compound, and herbicide” (NISSAN CHEMICAL CORPORATION, priority 2014, dated 2021)
# Tests used:
# Format in all cases: in vivo
# [1] = system: rapeseed; assay: Test Example 4: effect on crop by soil treatment (symbol g); settings: application herbicide amount 320 g/ha
# Outline: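 Crop seeds, among them rice, wheat, beet and rapeseed, were sown in sterilized diluvial soil and covered with about 1.5 cm of soil. Boxes were kept in a greenhouse at 25° C. to 30° C. for plant growth.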
# [2] = system: Digitaria ciliaris; assay: Test Example 4: herbicidal effect by soil treatment (symbol F); settings: application herbicide amount 320 g/ha
# Outline: (§1)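 Seeds were sown in sterilized diluvial soil, covered with about 1.5 cm of soil, and the soil surface was sprayed with a water-diluted emulsion of the compound at a predetermined rate. Plants grew in a greenhouse at 25° C. to 30° C.; effects were scored visually 3 weeks after application.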
# [3] = system: soybean; assay: Test Example 5: effect on crop by foliage application, plastic box (symbol d); settings: 320 g/ha, 3 weeks after application
# Outline: (§2)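 Crop and weed seeds sown in spots in sterilized diluvial soil in plastic boxes and covered with about 1.5 cm soil. Plants raised in a greenhouse at 25° C. to 30° C. for foliar application.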
# [4] = system: Monochoria vaginalis; assay: Test Example 2: herbicidal activity, application during weed generation in submerged conditions (symbol C); settings: Table 23; application herbicide amount 320 g/ha; grade 0-5 by criteria of Test Example 1
# Outline: (§3)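 Seeds sown in flooded alluvial soil (4 cm water) were grown in a 25-30° C greenhouse. At the one- to two-leaf stage, diluted emulsion of compound was applied to the water surface at a predetermined rate. Effect was scored 3 weeks later.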
# [5] = system: Scirpus juncoides; assay: Test Example 2: herbicidal activity, application during weed generation in submerged conditions (symbol B); settings: Table 23; application herbicide amount 320 g/ha; grade 0-5 by criteria of Test Example 1
# Outline: as §3
# [6] = system: Monochoria vaginalis; assay: Test Example 1: herbicidal activity, application before weed generation in submerged conditions (symbol C); settings: application herbicide amount 320 g/ha
# Outline: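 Compound emulsion was diluted to a set herbicide amount and applied to the water surface on the sowing day, into submerged (4 cm) alluvial-soil pots sown with mixed weed seeds and transplanted 2.5-leaf rice. Pots were held in a 25–30 °C greenhouse, and weeds were scored 0–5 by herbicidal ratio after 3 weeks.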
# [7] = system: Lolium multiflorum Lam.; assay: Test Example 5: herbicidal effect by foliage application, plastic box (symbol K); settings: 320 g/ha, 3 weeks after application
# Outline: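 After sowing into sterilized diluvial soil and growing two weeks under glass at 25° C. to 30° C., seedlings receive a uniform foliar spray of diluted emulsion. Damage is judged visually three weeks on.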
# [8] = system: Echinochloa oryzacola Vasing.; assay: Test Example 2: herbicidal activity, application during weed generation in submerged conditions (symbol A); settings: Table 23; application herbicide amount 320 g/ha; grade 0-5 by criteria of Test Example 1
# Outline: as §3
# [9] = system: Avena fatua; assay: Test Example 4: herbicidal effect by soil treatment (symbol I); settings: application herbicide amount 320 g/ha
# Outline: as §1
# [10] = system: corn; assay: Test Example 5: effect on crop by foliage application, plastic box (symbol c); settings: 320 g/ha, 3 weeks after application
# Outline: as §2
# [11] = system: corn; assay: Test Example 4: effect on crop by soil treatment (symbol c); settings: application herbicide amount 320 g/ha
# Outline: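 Steps: fill box with sterilized diluvial soil; sow seed spot-like; cover with ~1.5 cm soil; grow in greenhouse (25° C. to 30° C.).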
# [12] = system: Echinochloa crus-galli var. crus-galli; assay: Test Example 4: herbicidal effect by soil treatment (symbol H); settings: application herbicide amount 320 g/ha
# Outline: as §1
# [13] = system: Abutilon theophrasti; assay: Test Example 4: herbicidal effect by soil treatment (symbol M); settings: application herbicide amount 320 g/ha
# Outline: as §1
# [14] = system: Apera spica-venti; assay: Test Example 4: herbicidal effect by soil treatment (symbol L); settings: application herbicide amount 320 g/ha
# Outline: as §1
# [15] = system: rice plant; assay: Test Example 5: effect on crop by foliage application, plastic box (symbol b); settings: 320 g/ha, 3 weeks after application
# Outline: as §2
Compound,g (rapeseed) effect on crop grade [1],F (Digitaria ciliaris) herbicidal effect grade [2],"d: soybean, effect on crop grade [3]","Herbicidal effect grade, C: Monochoria vaginalis [4]","Herbicidal effect grade, B: Scirpus juncoides [5]","Herbicidal effect grade, C: Monochoria vaginalis [6]","K: Lolium multiflorum Lam., herbicidal effect grade [7]","Herbicidal effect grade, A: Echinochloa oryzacola Vasing. [8]",I (Avena fatua) herbicidal effect grade [9],"c: corn, effect on crop grade [10]",c (corn) effect on crop grade [11],H (Echinochloa crus-galli var. crus-galli) herbicidal effect grade [12],"b: directly sowed rice plant, effect on crop grade [15]","g: rapeseed, effect on crop grade [1]","F: Digitaria ciliaris, herbicidal effect grade [2]","I: Avena fatua, herbicidal effect grade [9]","c: corn, effect on crop grade [11]","H: Echinochloa crus-galli var. crus-galli, herbicidal effect grade [12]","M: Abutilon theophrasti, herbicidal effect grade [13]","L: Apera spica-venti, herbicidal effect grade [14]",other results
C#CCOC1=C(c2c(C)cc(C)cc2C)C(=O)C(CC(C)=NOC)C1 (centres unmarked) [1-008],0 (Herbicidal ratio of 5% or lower (almost no effect)),5 (Herbicidal ratio of 90% or more (almost completely withered)),2 (Herbicidal ratio of 20% or higher and lower than 40%),0 (Herbicidal ratio of 5% or lower (almost no effect)),2 (Herbicidal ratio of 20% or higher and lower than 40%),0 (Herbicidal ratio of 5% or lower (almost no effect)),5 (Herbicidal ratio of 90% or more (almost completely withered)),5 (Herbicidal ratio of 90% or more (almost completely withered)),0 (Herbicidal ratio of 5% or lower (almost no effect)),0 (Herbicidal ratio of 5% or lower (almost no effect)),0 (Herbicidal ratio of 5% or lower (almost no effect)),4 (Herbicidal ratio of 70% or higher and lower than 90%),4 (Herbicidal ratio of 70% or higher and lower than 90%),–,–,–,–,–,–,–,M (Abutilon theophrasti) herbicidal effect grade [13]: 0 (Herbicidal ratio of 5% or lower (almost no effect)); L (Apera spica-venti) herbicidal effect grade [14]: 5 (Herbicidal ratio of 90% or more (almost completely withered))
Cc1cc(C)c(C2=C(O)CC(CC(=O)C(C)C)C2=O)c(C)c1 (centres unmarked) [2-016],–,–,3 (Herbicidal ratio of 40% or higher and lower than 70%),0 (Herbicidal ratio of 5% or lower (almost no effect)),0 (Herbicidal ratio of 5% or lower (almost no effect)),0 (Herbicidal ratio of 5% or lower (almost no effect)),5 (Herbicidal ratio of 90% or more (almost completely withered)),4 (Herbicidal ratio of 70% or higher and lower than 90%),–,4 (Herbicidal ratio of 70% or higher and lower than 90%),–,–,5 (Herbicidal ratio of 90% or more (almost completely withered)),2 (Herbicidal ratio of 20% or higher and lower than 40%),5 (Herbicidal ratio of 90% or more (almost completely withered)),0 (Herbicidal ratio of 5% or lower (almost no effect)),3 (Herbicidal ratio of 40% or higher and lower than 70%),5 (Herbicidal ratio of 90% or more (almost completely withered)),0 (Herbicidal ratio of 5% or lower (almost no effect)),2 (Herbicidal ratio of 20% or higher and lower than 40%),–
CON=C(C)CC1CC(OCCSC)=C(c2c(C)cc(C)cc2C)C1=O (centres unmarked) [1-011],0 (Herbicidal ratio of 5% or lower (almost no effect)),0 (Herbicidal ratio of 5% or lower (almost no effect)),0 (Herbicidal ratio of 5% or lower (almost no effect)),0 (Herbicidal ratio of 5% or lower (almost no effect)),0 (Herbicidal ratio of 5% or lower (almost no effect)),0 (Herbicidal ratio of 5% or lower (almost no effect)),5 (Herbicidal ratio of 90% or more (almost completely withered)),0 (Herbicidal ratio of 5% or lower (almost no effect)),0 (Herbicidal ratio of 5% or lower (almost no effect)),0 (Herbicidal ratio of 5% or lower (almost no effect)),0 (Herbicidal ratio of 5% or lower (almost no effect)),0 (Herbicidal ratio of 5% or lower (almost no effect)),2 (Herbicidal ratio of 20% or higher and lower than 40%),–,–,–,–,–,–,–,M (Abutilon theophrasti) herbicidal effect grade [13]: 0 (Herbicidal ratio of 5% or lower (almost no effect)); L (Apera spica-venti) herbicidal effect grade [14]: 0 (Herbicidal ratio of 5% or lower (almost no effect))
CCCC(=O)C(C(=O)OC)C1CC(O)=C(c2c(C)cc(C)cc2C)C1=O (centres unmarked) [2-020],–,–,0 (Herbicidal ratio of 5% or lower (almost no effect)),0 (Herbicidal ratio of 5% or lower (almost no effect)),0 (Herbicidal ratio of 5% or lower (almost no effect)),0 (Herbicidal ratio of 5% or lower (almost no effect)),5 (Herbicidal ratio of 90% or more (almost completely withered)),1 (Herbicidal ratio of 5% or higher and lower than 20%),–,1 (Herbicidal ratio of 5% or higher and lower than 20%),–,–,4 (Herbicidal ratio of 70% or higher and lower than 90%),0 (Herbicidal ratio of 5% or lower (almost no effect)),5 (Herbicidal ratio of 90% or more (almost completely withered)),0 (Herbicidal ratio of 5% or lower (almost no effect)),3 (Herbicidal ratio of 40% or higher and lower than 70%),4 (Herbicidal ratio of 70% or higher and lower than 90%),0 (Herbicidal ratio of 5% or lower (almost no effect)),0 (Herbicidal ratio of 5% or lower (almost no effect)),–
CCC(=O)CCC1CC(OC)=C(c2c(C)cc(C)cc2C)C1=O (centres unmarked) [5-002],–,–,0 (Herbicidal ratio of 5% or lower (almost no effect)),0 (Herbicidal ratio of 5% or lower (almost no effect)),0 (Herbicidal ratio of 5% or lower (almost no effect)),0 (Herbicidal ratio of 5% or lower (almost no effect)),0 (Herbicidal ratio of 5% or lower (almost no effect)),0 (Herbicidal ratio of 5% or lower (almost no effect)),–,0 (Herbicidal ratio of 5% or lower (almost no effect)),–,–,0 (Herbicidal ratio of 5% or lower (almost no effect)),–,0 (Herbicidal ratio of 5% or lower (almost no effect)),0 (Herbicidal ratio of 5% or lower (almost no effect)),0 (Herbicidal ratio of 5% or lower (almost no effect)),0 (Herbicidal ratio of 5% or lower (almost no effect)),0 (Herbicidal ratio of 5% or lower (almost no effect)),0 (Herbicidal ratio of 5% or lower (almost no effect)),–
CC#Cc1cc(C)c(C2=C(O)CC(CC(C)=NOC)C2=O)c(C)c1 (mixture of isomers) [6-009],–,–,3 (Herbicidal ratio of 40% or higher and lower than 70%),0 (Herbicidal ratio of 5% or lower (almost no effect)),0 (Herbicidal ratio of 5% or lower (almost no effect)),0 (Herbicidal ratio of 5% or lower (almost no effect)),5 (Herbicidal ratio of 90% or more (almost completely withered)),3 (Herbicidal ratio of 40% or higher and lower than 70%),–,5 (Herbicidal ratio of 90% or more (almost completely withered)),–,–,5 (Herbicidal ratio of 90% or more (almost completely withered)),4 (Herbicidal ratio of 70% or higher and lower than 90%),5 (Herbicidal ratio of 90% or more (almost completely withered)),4 (Herbicidal ratio of 70% or higher and lower than 90%),5 (Herbicidal ratio of 90% or more (almost completely withered)),5 (Herbicidal ratio of 90% or more (almost completely withered)),5 (Herbicidal ratio of 90% or more (almost completely withered)),5 (Herbicidal ratio of 90% or more (almost completely withered)),–
